Broadly, the IC50 is the concentration that inhibits the measured activity by half.

IC50 data for twelve compounds are collected here from patent publication US20260070945A1, “MACROCYCLIC IMMUNOMODULATORS” (Bristol-Myers Squibb Company, priority 2022, published 2026).

Where a SMILES comes first, the peptide text is derived from it. Bridges are numbered along the chain shown (N, C = ends). [ ]: non-standard residue; d: D form. The star is where a group is joined. ξ: configuration not given here. Phe(4-COOH) = N[C@@H](Cc1ccc(C(=O)O)cc1)C(=O)O; Bip = N[C@@H](Cc1ccc(-c2ccccc2)cc1)C(=O)O; Phe(3-Me) = Cc1cccc(C[C@H](N)C(=O)O)c1; Val(3-OH) = CC(C)(O)[C@H](N)C(=O)O; 4Pal = N[C@@H](Cc1ccncc1)C(=O)O; 3Thi = N[C@@H](Cc1ccsc1)C(=O)O; Cha = N[C@@H](CC1CCCCC1)C(=O)O; Cit = NC(=O)NCCC[C@H](N)C(=O)O; Thr(3ξ) = CC(O)[C@H](N)C(=O)O; Carboxymethyl = O=C(O)C*; NMeA = CN[C@@H](C)C(=O)O; Aun = NCCCCCCCCCCC(=O)O; Dab = NCC[C@H](N)C(=O)O; AEEA = NCCOCCOCC(=O)O; Piv = CC(C)(C)C(=O)*

For one assay, the target named is T1, PD-1/PD-L1 interaction (PE-labeled human PD-L1-Ig binding to Jurkat cell line over-expressing human PD-1) (Homo sapiens, UniProt Q15116).
T1 construct: expressed in transfected cells; host or cells: Jurkat
T1 sequence (Q15116 25-288): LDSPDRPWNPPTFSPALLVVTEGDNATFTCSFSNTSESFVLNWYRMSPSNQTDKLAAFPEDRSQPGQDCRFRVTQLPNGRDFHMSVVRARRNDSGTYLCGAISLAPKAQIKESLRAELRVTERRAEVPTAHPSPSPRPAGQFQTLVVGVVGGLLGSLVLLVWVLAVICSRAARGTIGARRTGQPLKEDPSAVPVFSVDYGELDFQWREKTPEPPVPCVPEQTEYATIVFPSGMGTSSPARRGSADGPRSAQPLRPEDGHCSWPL
In words: Jurkat-PD-1 Cell Binding High-Content Screening Assay (CBA). The note with it: Jurkat-hPD-1 cells, PE-labeled PD-L1-Ig 20 nM final; read-out: Jurkat HPD1 PDL1 IC50. The method, boiled down: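 High-content imaging read-out of PE-PD-L1-Ig binding (20 nM final, 1 h) to Jurkat-hPD-1 cells, after 2 h compound exposure at 37 °C in DMEM with 10% FCS. Nuclei counterstained with Hoechst 33342 after paraformaldehyde fixation.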
Turning to `Cc1cccc(C[C@@H]2NC(=O)[C@H](CC(=O)O)NC(=O)[C@H](Cc3ccc(OCC(=O)O)cc3)NC(=O)[C@H](C(C)O)NC(=O)CSC[C@@H](C(=O)N[C@H](CC(N)=O)C(=O)NCCCCCCCCCCC(=O)O)NC(=O)[C@H](C(C)O)NC(=O)[C@H](C(C)C)NC(=O)[C@H](CC3CCCCC3)NC(=O)[C@H](CCN)NC(=O)[C@@H](CC(C)C)NC(=O)[C@H](C)N(C)C(=O)[C@H](CCCCNC(=O)C(C)(C)C)NC(=O)[C@H](Cc3ccc(-c4ccccc4)cc3)NC(=O)[C@H](Cc3ccc(O)cc3)NC2=O)c1` (stereo partly drawn) [Example 2452] ({CH2CO}-[Thr(3ξ)]Y(Carboxymethyl)D[Phe(3-Me)]Y[Bip]K(Piv)[NMeA][dL][Dab][Cha]V[Thr(3ξ)]C[dN][Aun]-OH; thioether N-14), the IC50 came out at 0.0122 µM. As to `CC(C)C[C@H]1NC(=O)[C@H](C)N(C)C(=O)[C@H](C(C)C)NC(=O)[C@H](Cc2ccc(-c3ccccc3)cc2)NC(=O)[C@H](C(C)C)NC(=O)[C@H](Cc2c[nH]c3ccccc23)NC(=O)[C@H](CC(=O)O)NC(=O)[C@H](Cc2ccc(OCC(=O)O)cc2)NC(=O)[C@H](Cc2ccc(OCC(=O)O)cc2)NC(=O)CSC[C@@H](C(=O)NCCOCCOCC(=O)NCCCCCCCCCCC(=O)O)NC(=O)[C@H](CO)NC(=O)[C@H](C(C)C)NC(=O)[C@H](CC2CCCCC2)NC(=O)[C@H](CCN)NC1=O` [Example 2453] ({CH2CO}-Y(Carboxymethyl)Y(Carboxymethyl)DWV[Bip]V[NMeA][dL][Dab][Cha]VSC[AEEA][Aun]-OH; thioether N-14), the 50% inhibitory concentration (IC50) worked out at 0.0131 µM. With `Cc1cccc(C[C@@H]2NC(=O)[C@H](CC(=O)O)NC(=O)[C@H](Cc3ccc(OCC(=O)O)cc3)NC(=O)[C@H](Cc3ccncc3)NC(=O)CSC[C@@H](C(=O)N[C@@H](CCN)C(=O)NCCCCCCCCCCC(=O)O)NC(=O)[C@H](CO)NC(=O)[C@H](CO)NC(=O)[C@H](CC3CCCCC3)NC(=O)[C@H](CCN)NC(=O)[C@@H](CC(C)C)NC(=O)[C@H](C)N(C)C(=O)[C@H](Cc3ccc(OCC(=O)O)cc3)NC(=O)[C@H](Cc3ccc(-c4ccccc4)cc3)NC(=O)[C@H](Cc3ccc(OCC(=O)O)cc3)NC2=O)c1` [Example 2454] ({CH2CO}-[4Pal]Y(Carboxymethyl)D[Phe(3-Me)]Y(Carboxymethyl)[Bip]Y(Carboxymethyl)[NMeA][dL][Dab][Cha]SSC[Dab][Aun]-OH; thioether N-14), the concentration for half-maximal inhibition (IC50) is 0.0111 µM.

Staying with this assay, now noted: PE-labeled PD-L1-Ig 20 nM final, Jurkat-hPD-1 cells; read-out: Jurkat HPD1 PDL1 IC50.
As for `CC(C)C[C@H]1NC(=O)[C@H](C)N(C)C(=O)[C@H](C(C)C)NC(=O)[C@H](Cc2ccc(-c3ccccc3)cc2)NC(=O)[C@H](C(C)C)NC(=O)[C@H](Cc2c[nH]c3ccccc23)NC(=O)[C@H](CC(=O)O)NC(=O)[C@H](Cc2ccc(OCC(=O)O)cc2)NC(=O)[C@H](Cc2ccc(OCC(=O)O)cc2)NC(=O)CSC[C@@H](C(=O)NCCOCCOCC(=O)NCCCCCCCCCCC(=O)O)NC(=O)[C@H](CO)NC(=O)[C@H](C(C)(C)O)NC(=O)[C@H](CC2CCCCC2)NC(=O)[C@H](CCN)NC1=O` [Example 2455] ({CH2CO}-Y(Carboxymethyl)Y(Carboxymethyl)DWV[Bip]V[NMeA][dL][Dab][Cha][Val(3-OH)]SC[AEEA][Aun]-OH; thioether N-14), the concentration for half-maximal inhibition (IC50) was determined as 0.0084 µM. On to `CC(C)C[C@H]1NC(=O)[C@H](C)N(C)C(=O)[C@H](CCCNC(N)=O)NC(=O)[C@H](Cc2ccc(-c3ccccc3)cc2)NC(=O)[C@H](C(C)C)NC(=O)[C@H](Cc2c[nH]c3ccccc23)NC(=O)[C@H](CC(=O)O)NC(=O)[C@H](Cc2ccc(OCC(=O)O)cc2)NC(=O)[C@H](Cc2ccc(OCC(=O)O)cc2)NC(=O)CSC[C@@H](C(=O)NCCOCCOCC(=O)NCCCCCCCCCCC(=O)O)NC(=O)[C@H](CO)NC(=O)[C@H](C(C)(C)O)NC(=O)[C@H](CC2CCCCC2)NC(=O)[C@H](CCN)NC1=O` [Example 2456] ({CH2CO}-Y(Carboxymethyl)Y(Carboxymethyl)DWV[Bip][Cit][NMeA][dL][Dab][Cha][Val(3-OH)]SC[AEEA][Aun]-OH; thioether N-14), for which the IC50 is 0.0125 µM. Consider `Cc1cccc(C[C@@H]2NC(=O)[C@H](CC(=O)O)NC(=O)[C@H](Cc3ccc(OCC(=O)O)cc3)NC(=O)[C@H](Cc3ccsc3)NC(=O)CSC[C@@H](C(=O)N[C@@H](CCN)C(=O)NCCCCCCCCCCC(=O)O)NC(=O)[C@H](CO)NC(=O)[C@H](C(C)(C)O)NC(=O)[C@H](CC3CCCCC3)NC(=O)[C@H](Cc3cnc[nH]3)NC(=O)[C@@H](CC(C)C)NC(=O)[C@H](C)N(C)C(=O)[C@H](Cc3ccc(OCC(=O)O)cc3)NC(=O)[C@H](Cc3ccc(-c4ccccc4)cc3)NC(=O)[C@H](Cc3ccc(OCC(=O)O)cc3)NC2=O)c1` [Example 2457] ({CH2CO}-[3Thi]Y(Carboxymethyl)D[Phe(3-Me)]Y(Carboxymethyl)[Bip]Y(Carboxymethyl)[NMeA][dL]H[Cha][Val(3-OH)]SC[Dab][Aun]-OH; thioether N-14), for which the half-maximal inhibitory concentration (IC50) was 0.0412 µM. Same read-out and setting: the same measure for `CC(C)C[C@@H]1NC(=O)[C@H](Cc2c[nH]c3ccccc23)NC(=O)[C@H](CC(=O)O)NC(=O)[C@H](Cc2ccc(OCC(=O)O)cc2)NC(=O)[C@H](Cc2ccc(OCC(=O)O)cc2)NC(=O)CSC[C@@H](C(=O)NCCOCCOCC(=O)NCCCCCCCCCCC(=O)O)NC(=O)[C@H](CCCNC(N)=O)NC(=O)[C@H](C(C)(C)O)NC(=O)[C@H](CC2CCCCC2)NC(=O)[C@H](CCN)NC(=O)[C@@H](CC(C)C)NC(=O)[C@H](C)N(C)C(=O)[C@H](C(C)C)NC(=O)[C@H](Cc2ccc(-c3ccccc3)cc2)NC1=O` [Example 2458] ({CH2CO}-Y(Carboxymethyl)Y(Carboxymethyl)DWL[Bip]V[NMeA][dL][Dab][Cha][Val(3-OH)][Cit]C[AEEA][Aun]-OH; thioether N-14): 0.0221 µM; for `CC(=O)NCCCC[C@@H]1NC(=O)[C@H](C(C)(C)O)NC(=O)[C@H](CC2CCCCC2)NC(=O)[C@H](CCN)NC(=O)[C@@H](CC(C)C)NC(=O)[C@H](C)N(C)C(=O)[C@H](CCC(N)=O)NC(=O)[C@H](Cc2ccc(-c3ccccc3)cc2)NC(=O)[C@H](CC(C)C)NC(=O)[C@H](Cc2c[nH]c3ccccc23)NC(=O)[C@H](CC(=O)O)NC(=O)[C@H](Cc2ccc(C(=O)O)cc2)NC(=O)[C@H](Cc2ccc(OCC(=O)O)cc2)NC(=O)CSC[C@@H](C(=O)NCCOCCOCC(=O)NCCCCCCCCCCC(=O)O)NC1=O` [Example 2459] ({CH2CO}-Y(Carboxymethyl)[Phe(4-COOH)]DWL[Bip]Q[NMeA][dL][Dab][Cha][Val(3-OH)]K(Ac)C[AEEA][Aun]-OH; thioether N-14): 0.0451 µM; for `CC(=O)NCCCC[C@@H]1NC(=O)[C@H](C(C)(C)O)NC(=O)[C@H](CC2CCCCC2)NC(=O)[C@H](CCN)NC(=O)[C@@H](CC(C)C)NC(=O)[C@H](C)N(C)C(=O)[C@H](C(C)C)NC(=O)[C@H](Cc2ccc(-c3ccccc3)cc2)NC(=O)[C@H](CC(C)C)NC(=O)[C@H](Cc2c[nH]c3ccccc23)NC(=O)[C@H](CC(=O)O)NC(=O)[C@H](Cc2ccc(C(=O)O)cc2)NC(=O)[C@H](Cc2ccc(OCC(=O)O)cc2)NC(=O)CSC[C@@H](C(=O)NCCOCCOCC(=O)NCCCCCCCCCCC(=O)O)NC1=O` [Example 2460] ({CH2CO}-Y(Carboxymethyl)[Phe(4-COOH)]DWL[Bip]V[NMeA][dL][Dab][Cha][Val(3-OH)]K(Ac)C[AEEA][Aun]-OH; thioether N-14): 0.0149 µM.

For `Cc1cccc(C[C@@H]2NC(=O)[C@H](CC(=O)O)NC(=O)[C@H](Cc3ccc(C(=O)O)cc3)NC(=O)[C@H](Cc3ccncc3)NC(=O)CSC[C@@H](C(=O)NCCOCCOCC(=O)NCCCCCCCCCCC(=O)O)NC(=O)[C@H](CO)NC(=O)[C@H](C(C)(C)O)NC(=O)[C@H](CC3CCCCC3)NC(=O)[C@H](CCN)NC(=O)[C@@H](CC(C)C)NC(=O)[C@H](C)N(C)C(=O)[C@H](Cc3ccc(OCC(=O)O)cc3)NC(=O)[C@H](Cc3ccc(-c4ccccc4)cc3)NC(=O)[C@H](Cc3ccc(OCC(=O)O)cc3)NC2=O)c1` [Example 2463] ({CH2CO}-[4Pal][Phe(4-COOH)]D[Phe(3-Me)]Y(Carboxymethyl)[Bip]Y(Carboxymethyl)[NMeA][dL][Dab][Cha][Val(3-OH)]SC[AEEA][Aun]-OH; thioether N-14), the IC50 was found to be 0.0693 µM. Consider `Cc1cccc(C[C@@H]2NC(=O)[C@H](CC(=O)O)NC(=O)[C@H](Cc3ccc(C(=O)O)cc3)NC(=O)[C@H](Cc3ccncc3)NC(=O)CSC[C@@H](C(=O)NCCOCCOCC(=O)NCCCCCCCCCCC(=O)O)NC(=O)[C@H](Cc3cnc[nH]3)NC(=O)[C@H](C(C)(C)O)NC(=O)[C@H](CC3CCCCC3)NC(=O)[C@H](CCN)NC(=O)[C@@H](CC(C)C)NC(=O)[C@H](C)N(C)C(=O)[C@H](Cc3ccc(OCC(=O)O)cc3)NC(=O)[C@H](Cc3ccc(-c4ccccc4)cc3)NC(=O)[C@H](Cc3ccc(OCC(=O)O)cc3)NC2=O)c1` [Example 2464] ({CH2CO}-[4Pal][Phe(4-COOH)]D[Phe(3-Me)]Y(Carboxymethyl)[Bip]Y(Carboxymethyl)[NMeA][dL][Dab][Cha][Val(3-OH)]HC[AEEA][Aun]-OH; thioether N-14), for which the half-maximal inhibitory concentration (IC50) came out at 0.046 µM. As to `Cc1cccc(C[C@@H]2NC(=O)[C@H](CC(=O)O)NC(=O)[C@H](Cc3ccc(OCC(=O)O)cc3)NC(=O)[C@H](CCN)NC(=O)CSC[C@@H](C(=O)N[C@@H](CCN)C(=O)NCCCCCCCCCCC(=O)O)NC(=O)[C@H](CO)NC(=O)[C@H](C(C)(C)O)NC(=O)[C@H](CC3CCCCC3)NC(=O)[C@H](Cc3c[nH]cn3)NC(=O)[C@@H](CC(C)C)NC(=O)[C@H](C)N(C)C(=O)[C@H](Cc3ccc(OCC(=O)O)cc3)NC(=O)[C@H](Cc3ccc(-c4ccccc4)cc3)NC(=O)[C@H](Cc3ccc(OCC(=O)O)cc3)NC2=O)c1` [Example 2465] ({CH2CO}-[Dab]Y(Carboxymethyl)D[Phe(3-Me)]Y(Carboxymethyl)[Bip]Y(Carboxymethyl)[NMeA][dL]H[Cha][Val(3-OH)]SC[Dab][Aun]-OH; thioether N-14), the concentration for half-maximal inhibition (IC50) came to 0.0702 µM.
